Experimental data published in PMC9020709, “Hepcidin is potential regulator for renin activity” (PLoS ONE, 2022).
Entries after “also recorded” stand apart in the source; their conditions may differ. Where no end group is shown, it is not given here.

Assays:
[1] = system: angiotensin-converting enzyme 1 (ACE1); assay: ACE1 inhibition screening kit (fluorometric); format: biochemical
Procedure: (§1) Activity measurements for all three enzymes (renin, ACE1 and ACE2) were carried out using commercial inhibition kits following manufacturer’s instructions. Screening kits were purchased from Biovision (Biovision, Inc. San Francisco, CA). Candidate inhibitors used were human hepcidin-25/LEAP-1 (disulfide bonds between Cys7–Cys23, Cys10–Cys13, Cys11–Cys19, and Cys14–Cys22, purity assessed by HPLC ≥ 98.0%) purchased from Peptides International (Peptides International Inc, Louisville, KY) as well as N-terminal part of hepcidin, Asp-Thr-His-Phe-Pro (hepcidin-5) synthetized by Proteogenix (Schiltigheim, France).
(§2) All kits included the enzyme, substrate, and enzyme inhibitor as negative control. […] DABCYL-EDANS is well-known FRET pair where fluorescence is quenched when peptide is uncleaved. Fluorescence signal is increased after peptide is cleaved and EDANS molecule is free in the solution. The fluorescence intensity was recorded and calculated as follows. […] Both candidate inhibitors were measured with final sample concentrations of 10 nM, 100 nM and 500 nM. […] Fluorescence measurement was performed using Perkin Elmer UV/VIS Envision multimode plate reader. […] Fluorescence was recorded every 60 s for 60 min at 37°C. […]
Briefly, ACE1 enzyme solution was added to a 96-well plate and each diluted candidate enzyme inhibitors were added. […] Fluorescence was recorded every 60s for 100 min at 37°C. […]

[2] = system: renin; assay: Renin inhibitor screening kit (fluorometric FRET, DABCYL-EDANS); format: biochemical; conditions: for Mean inhibitory effect on renin activity: 5 min pre-incubation at 37°C, read every 60 s for 60 min at 37°C, ex/em 328/552 nm; for Renin inhibition (in words): 10, 100 and 500 nM, in vitro, 37°C
Procedure: as §1
All kits included the enzyme, substrate, and enzyme inhibitor as negative control. The fluorophore labelled substate was cleaved by the enzyme. The used fluorophores were a synthetic o-aminobenzoyl peptide for ACE1, 7-Methoxycoumarin-4-acetic acid (MCA) for ACE2 and 5-((2-Aminoethyl)amino)naphthalene-1-sulfonic acid (EDANS) for renin. DABCYL-EDANS is well-known FRET pair where fluorescence is quenched when peptide is uncleaved. Fluorescence signal is increased after peptide is cleaved and EDANS molecule is free in the solution. The fluorescence intensity was recorded and calculated as follows. According to renin inhibitor screening kit instructions hepcidin-25 and hepcidin-5 were first pipetted to a black ForteBio’s 96-well plate. Renin enzyme solution was added and mixed. Both candidate inhibitors were measured with final sample concentrations of 10 nM, 100 nM and 500 nM. The plate was incubated for 5 min at 37°C. Finally, substrate solution was added into each well. Fluorescence measurement was performed using Perkin Elmer UV/VIS Envision multimode plate reader. Excitation and emission wavelengths were 328 and 552 nm, respectively. Fluorescence was recorded every 60 s for 60 min at 37°C. Inhibitory activity of renin was calculated as follows: Renininhibitoryactivity(%)=1−Activitywithsample/Activitywithoutsamplex100 where “Activity with sample” is the slope calculated from the linear range of the fluorescence plot at the presence of candidate inhibitor. Activity without the sample represents the slope without any sample in the well.
Mean enzyme inhibitory activities with the standard error of means were calculated at different concentrations. Data analysis was performed using Microsoft Office 365 ProPlus Excel version 1902 for Windows. The hepcidin–renin binding data was treated as follows: Background was subtracted, and the data was normalised to allow comparison between experiments. The normalised data was analysed with […] regression analysis in GraphPad Prism 5.02 (GraphPad Software, La Jolla, CA) assuming one-site specific binding.

[3] = system: human renin; assay: Bio-layer interferometry, hepcidin-renin binding; conditions: biotinylated renin on sensors; analyte 12.5-100 μM; ForteBio Octet RED384, PBS pH 7.2 and 150 mM NaCl, 27°C; association 0–1200 s, dissociation 1200–2000 s
Procedure: Human prorenin coding gene was ordered from GeneArt in pcDNA3.1(+) as fusion protein with a C-terminal His-tag. The pcDNA3.1 vector confers ampicillin resistance. Plasmid was dissolved in 50 μl of TE-EF and the amount of 100 ng was transferred into Escherichia coli TOP10 cells (Invitrogen, UK) with the heat shock method (30 s). In the next day colonies were picked for midiprep isolation. A single colony was picked and cultured in 5 ml media supplemented with 100 μg/ml ampicillin and 5 mM glucose for 7 hours after which it is moved to 200 ml LB media, which included ampicillin and glucose, and grown overnight at 37°C 220 rpm. The plasmid DNA was isolated using Nucleobond Xtra Midi Plus EF Kit (Macherey-Nagel, #7404220). Plasmid DNA produced was endotoxin-free. Human prorenin was then produced in ExpiCHO cells.
Cell pellet was re-suspended in 20 ml buffer (50 mM Hepes, 200 mM NaCl, 10% Glycerol, 1 mM TCEP, pH 7.5) and protease inhibitor tablet was added. Cell lysis was made with sonicator (1 min, 50%, 2 sec on/5 sec off cycle). […]
Biotinylation of renin was done using NHS-PEG4-Biotin (ThermoFisher Scientific) at 1:1 molar ratio. […] Concentration of biotinylated protein was measured using NanoDrop™ One Uv-Vis spectrophotometer (ThermoFisher Scientific). […]
(§3) Mean enzyme inhibitory activities with the standard error of means were calculated at different concentrations. […]

[4] = system: angiotensin-converting enzyme 2 (ACE2); assay: ACE2 inhibition screening kit (fluorometric); format: biochemical; conditions: 10, 100 and 500 nM; 15 min pre-incubation at room temperature, read every 60 s for 60 min, ex/em 320/420 nm; n = 3-6-4 (hepcidin-25), 3-6-3 (hepcidin-5)
Procedure: as §1
as §2, with “control. The fluorophore labelled substate was cleaved by the enzyme.” for “control.”
as §3

Row | Substance | ACE1 inhibitory activity (strongest) ([1]; 500 nM, 15 min pre-incubation at 37°C, read every 60 s for 100 min at 37°C, ex/em 330/430 nm, n = 6) [%] | Mean inhibitory effect on renin activity ([2]; 10 nM peptide, n = 2) [%] | Mean inhibitory effect on renin activity ([2]; 100 nM peptide, n = 3) [%] | Mean inhibitory effect on renin activity ([2]; 500 nM peptide, n = 3) [%] | Renin inhibition (in words) [2] | Binding to renin (association and dissociation curves, in words) [3] | ACE1 inhibition (in words) ([1]; 10, 100 and 500 nM, 37°C, n = 5-6-1 for hepcidin-25) | ACE2 inhibition (in words) [4]
1 | Asp-Thr-His-Phe-Pro [hepcidin-5, N-terminal part of hepcidin, synthetized by Proteogenix] | 34.8 | 50.1 | 50.0 | 58.6 | stronger effect on renin than hepcidin-25 | – | – | –
2 | hepcidin-20: control peptide, purchased from Pepnet; truncated isoform without N-terminal hepcidin-5 (ICIFCCGCCHRSKCGMCCKT; ends and bridges not checked; cysteine pairing not given here; UniProt P81172 65-84, looked up) | – | – | – | – | – | cannot bind to renin | – | –
3 | hepcidin-25: human hepcidin-25/LEAP-1 (disulfide bonds between Cys7–Cys23, Cys10–Cys13, Cys11–Cys19, and Cys14–Cys22), purchased from Peptides International | – | 20.4 | 29.2 | 38.3 | has an inhibitory effect on renin in vitro; also recorded: can bind to renin enzyme and inhibit its activity in vitro; also recorded: can bind to the active site of renin and inhibit its activity in vitro | concentration dependent | not inhibited remarkably; also recorded: low inhibitory activity | not inhibited remarkably
